The results in this text go back to PMC7720687 (ERJ Open Research, 2020).

In test [1] the target is T1, epithelial sodium channel (ENaC) (Mus musculus, UniProt Q61180+Q9WU38+Q9WU39).
T1 sequence (Q61180 1-699): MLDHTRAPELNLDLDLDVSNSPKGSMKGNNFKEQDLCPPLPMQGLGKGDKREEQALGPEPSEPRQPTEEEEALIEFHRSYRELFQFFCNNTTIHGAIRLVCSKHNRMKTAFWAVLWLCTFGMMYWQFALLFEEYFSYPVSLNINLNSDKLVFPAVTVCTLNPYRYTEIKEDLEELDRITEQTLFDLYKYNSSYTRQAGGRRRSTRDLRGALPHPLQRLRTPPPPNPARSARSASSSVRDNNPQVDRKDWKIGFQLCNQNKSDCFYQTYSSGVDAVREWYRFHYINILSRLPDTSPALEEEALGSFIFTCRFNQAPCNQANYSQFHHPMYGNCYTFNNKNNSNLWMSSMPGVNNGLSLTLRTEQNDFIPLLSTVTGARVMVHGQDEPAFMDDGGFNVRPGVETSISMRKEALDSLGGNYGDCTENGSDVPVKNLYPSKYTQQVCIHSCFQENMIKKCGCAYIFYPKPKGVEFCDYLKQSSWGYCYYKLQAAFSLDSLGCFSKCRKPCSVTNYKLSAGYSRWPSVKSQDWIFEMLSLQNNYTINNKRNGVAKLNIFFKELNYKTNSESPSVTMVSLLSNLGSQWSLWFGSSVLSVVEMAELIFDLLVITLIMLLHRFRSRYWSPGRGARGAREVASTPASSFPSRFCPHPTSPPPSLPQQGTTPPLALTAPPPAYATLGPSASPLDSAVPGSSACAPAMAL
T1 sequence (Q9WU38 1-638): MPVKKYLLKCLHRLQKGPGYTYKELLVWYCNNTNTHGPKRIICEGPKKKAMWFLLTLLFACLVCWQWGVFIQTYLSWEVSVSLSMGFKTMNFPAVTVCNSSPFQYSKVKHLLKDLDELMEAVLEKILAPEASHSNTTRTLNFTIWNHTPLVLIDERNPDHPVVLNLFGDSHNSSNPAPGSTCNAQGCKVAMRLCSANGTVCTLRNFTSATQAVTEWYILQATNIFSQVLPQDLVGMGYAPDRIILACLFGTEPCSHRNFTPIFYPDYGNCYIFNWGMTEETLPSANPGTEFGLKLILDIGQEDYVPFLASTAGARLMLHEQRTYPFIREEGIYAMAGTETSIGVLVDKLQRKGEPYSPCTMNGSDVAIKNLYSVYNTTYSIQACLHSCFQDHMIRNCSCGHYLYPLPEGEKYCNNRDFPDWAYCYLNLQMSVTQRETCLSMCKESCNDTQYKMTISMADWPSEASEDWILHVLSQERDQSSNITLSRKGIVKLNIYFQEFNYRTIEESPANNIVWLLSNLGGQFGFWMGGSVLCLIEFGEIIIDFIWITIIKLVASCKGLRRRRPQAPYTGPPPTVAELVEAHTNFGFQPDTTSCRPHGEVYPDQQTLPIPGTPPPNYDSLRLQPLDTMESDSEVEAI
T1 sequence (Q9WU39 1-655): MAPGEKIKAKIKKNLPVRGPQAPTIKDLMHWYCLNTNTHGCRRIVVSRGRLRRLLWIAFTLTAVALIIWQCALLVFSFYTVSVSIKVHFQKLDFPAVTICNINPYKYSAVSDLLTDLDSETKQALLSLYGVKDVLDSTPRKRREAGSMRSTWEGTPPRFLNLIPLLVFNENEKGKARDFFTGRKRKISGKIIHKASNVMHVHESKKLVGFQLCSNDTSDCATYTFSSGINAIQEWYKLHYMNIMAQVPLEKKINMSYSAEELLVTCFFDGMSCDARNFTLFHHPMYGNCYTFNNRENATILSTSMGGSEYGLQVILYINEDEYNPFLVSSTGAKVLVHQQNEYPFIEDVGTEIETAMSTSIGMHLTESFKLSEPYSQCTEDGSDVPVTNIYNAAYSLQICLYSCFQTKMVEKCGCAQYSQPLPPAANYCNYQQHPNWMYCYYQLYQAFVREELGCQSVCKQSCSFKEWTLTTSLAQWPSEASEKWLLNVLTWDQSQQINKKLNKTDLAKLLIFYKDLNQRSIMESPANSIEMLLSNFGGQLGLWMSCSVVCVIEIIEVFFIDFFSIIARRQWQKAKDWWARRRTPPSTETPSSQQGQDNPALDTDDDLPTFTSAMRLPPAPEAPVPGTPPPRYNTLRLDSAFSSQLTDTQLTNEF
In words: Ussing chamber, amiloride-sensitive short-circuit current in M1 monolayers. In kind it is cell-based.

Test [2] concerns the target T2, epithelial sodium channel (ENaC) (Homo sapiens, UniProt P37088+P51168+P51170).
T2 sequence (P37088 1-669): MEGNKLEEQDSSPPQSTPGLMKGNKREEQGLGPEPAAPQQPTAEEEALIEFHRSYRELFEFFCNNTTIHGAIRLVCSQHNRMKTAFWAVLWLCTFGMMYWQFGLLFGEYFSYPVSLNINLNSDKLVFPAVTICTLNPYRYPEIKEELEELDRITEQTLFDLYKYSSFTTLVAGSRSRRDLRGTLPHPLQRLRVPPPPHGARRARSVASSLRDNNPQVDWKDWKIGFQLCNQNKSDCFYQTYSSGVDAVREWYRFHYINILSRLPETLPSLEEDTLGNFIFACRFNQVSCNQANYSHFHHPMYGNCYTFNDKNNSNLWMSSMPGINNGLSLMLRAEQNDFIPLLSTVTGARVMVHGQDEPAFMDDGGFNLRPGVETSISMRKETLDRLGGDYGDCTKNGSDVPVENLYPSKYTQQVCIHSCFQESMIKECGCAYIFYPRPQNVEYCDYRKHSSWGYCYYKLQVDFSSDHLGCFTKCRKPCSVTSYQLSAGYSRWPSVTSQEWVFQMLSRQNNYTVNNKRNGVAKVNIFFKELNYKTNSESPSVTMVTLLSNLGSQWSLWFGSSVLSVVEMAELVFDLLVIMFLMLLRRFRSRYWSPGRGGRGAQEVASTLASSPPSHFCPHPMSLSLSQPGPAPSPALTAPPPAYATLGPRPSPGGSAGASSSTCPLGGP
T2 sequence (P51168 1-640): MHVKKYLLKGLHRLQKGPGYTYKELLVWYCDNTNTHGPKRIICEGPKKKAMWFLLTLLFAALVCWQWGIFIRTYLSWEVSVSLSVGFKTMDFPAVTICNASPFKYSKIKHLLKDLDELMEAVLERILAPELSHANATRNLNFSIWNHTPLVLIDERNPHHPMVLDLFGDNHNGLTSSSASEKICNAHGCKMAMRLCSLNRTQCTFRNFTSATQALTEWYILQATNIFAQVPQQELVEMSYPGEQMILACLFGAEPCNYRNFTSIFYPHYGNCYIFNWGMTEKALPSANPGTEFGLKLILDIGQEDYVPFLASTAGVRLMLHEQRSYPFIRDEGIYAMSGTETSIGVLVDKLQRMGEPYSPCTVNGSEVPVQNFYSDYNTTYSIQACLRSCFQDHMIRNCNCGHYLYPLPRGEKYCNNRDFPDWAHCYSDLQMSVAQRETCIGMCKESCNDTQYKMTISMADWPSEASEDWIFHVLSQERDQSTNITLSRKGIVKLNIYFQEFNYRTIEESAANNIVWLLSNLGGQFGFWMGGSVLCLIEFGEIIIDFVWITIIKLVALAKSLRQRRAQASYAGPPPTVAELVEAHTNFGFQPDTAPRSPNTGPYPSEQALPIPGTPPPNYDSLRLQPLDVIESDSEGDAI
T2 sequence (P51170 1-649): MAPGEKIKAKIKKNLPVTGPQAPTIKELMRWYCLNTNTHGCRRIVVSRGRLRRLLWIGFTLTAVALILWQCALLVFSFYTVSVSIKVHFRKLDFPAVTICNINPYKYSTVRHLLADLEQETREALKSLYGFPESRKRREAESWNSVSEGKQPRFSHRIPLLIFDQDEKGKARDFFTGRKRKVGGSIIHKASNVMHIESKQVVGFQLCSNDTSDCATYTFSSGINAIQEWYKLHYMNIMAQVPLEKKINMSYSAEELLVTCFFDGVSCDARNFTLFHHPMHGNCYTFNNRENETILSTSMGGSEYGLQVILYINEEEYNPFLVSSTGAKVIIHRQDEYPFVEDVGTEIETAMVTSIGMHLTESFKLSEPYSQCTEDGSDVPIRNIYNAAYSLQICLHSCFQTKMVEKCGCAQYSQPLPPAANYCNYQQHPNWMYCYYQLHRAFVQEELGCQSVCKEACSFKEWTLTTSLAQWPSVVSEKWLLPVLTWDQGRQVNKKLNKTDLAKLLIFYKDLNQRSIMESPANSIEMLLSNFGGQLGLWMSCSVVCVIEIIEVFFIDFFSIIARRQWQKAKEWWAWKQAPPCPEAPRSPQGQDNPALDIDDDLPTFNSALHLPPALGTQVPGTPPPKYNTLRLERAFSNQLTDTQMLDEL
In words: Ussing chamber, amiloride-sensitive short-circuit current in NCI-H441 monolayers. In kind it is cell-based.

One may read the IC50 as the midpoint of a concentration-inhibition curve. A higher IC50 goes with lower potency.

Take BI 1265162: the figures for the IC50 in test [1] and in test [2] were 3 nM and 8 nM, respectively.
